Data from US10875851B2, “Factor XIIa inhibitors” (Merck Sharp & Dohme Corp., priority 2016, dated 2020).

The compounds below were run against human Factor XIIa (Homo sapiens (Human), UniProt P00748) (assay: Factor XIIa Assay). Conditions: purified human Factor XIIa 500 pM; substrate n-Acetyl-Lys-Pro-Arg-AFC 100 μM; pH 7.4; read-out: FXIIa IC50.
Assay type: biochemical
Procedure: The effectiveness of a compound of the present invention as an inhibitor of Coagulation Factor XIIa can be determined using a relevant purified serine protease, and an appropriate synthetic substrate. The rate of hydrolysis of the chromogenic or fluorogenic substrate by the relevant serine protease was measured both in the absence and presence of compounds of the present invention. Assays were conducted at room temperature or at 37° C. […] A decrease in the rate of fluorescence change in the presence of inhibitor is indicative of enzyme inhibition. Such methods are known to one skilled in the art.
Factor XIIa activity determinations were made in 50 mM HEPES buffer containing 150 mM NaCl, 5 mM CaCl2, and 0.1% PEG 8000 (polyethylene glycol; JT Baker or Fisher Scientific) at pH 7.4. Determinations were made using purified human Factor XIIa at a final concentration of 500 pM (Sekisui Diagnostics) and the synthetic substrate, n-Acetyl-Lys-Pro-Arg-AFC, TFA salt (Sigma #C6608) at a concentration of 100 μM.
Times required to achieve equilibration between enzyme and inhibitor were determined in control experiments. Initial velocities of product formation in the absence (Vo) or presence of inhibitor (Vi) were measured. IC50 was determined as the concentration of I yielding Vi=Vo/2.

Sequence of human Factor XIIa (P00748 373-615): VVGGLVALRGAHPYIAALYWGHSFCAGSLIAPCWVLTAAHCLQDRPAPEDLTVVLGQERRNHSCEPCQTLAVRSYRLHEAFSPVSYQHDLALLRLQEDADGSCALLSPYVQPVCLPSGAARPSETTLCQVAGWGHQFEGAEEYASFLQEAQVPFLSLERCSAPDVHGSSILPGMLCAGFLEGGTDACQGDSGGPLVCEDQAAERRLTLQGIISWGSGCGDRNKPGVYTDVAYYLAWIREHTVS

SMILES	IC50
CS(=O)(=O)NCCCC[C@@H](NC1CCC2(CC1)CCN(Cc1ccccc1)C2)C(=O)N1CCN(C(=O)Oc2cccc3c2CCNC3)C[C@H]1C(=O)NCc1cccs1 (stereo partly drawn) [Example 81, 1,2,3,4-tetrahydroisoquinolin-5-yl (3S)-4-[N^2-(2-benzyl-2-azaspiro[4.5]dec-8-yl)-N^6-(methylsulfonyl)-D-lysyl]-3-[(thiophen-2-ylmethyl)carbamoyl]piperazine-1-carboxylate]	3.4 nM
CS(=O)(=O)NCCCC[C@@H](NC1CCCCC1)C(=O)N1CCN(C(=O)Oc2ccc3ccccc3c2Cl)C[C@H]1C(=O)NCc1cccs1 [Example 70, 1-chloronaphthalen-2-yl (3S)-4-[N^2-cyclohexyl-N^6-(methylsulfonyl)-D-lysyl]-3-[(thiophen-2-ylmethyl)carbamoyl]piperazine-1-carboxylate]	20 nM
CN(C)CCCC[C@@H](NC1CCCCC1)C(=O)N1CCN(C(=O)Oc2ccccc2Cl)C[C@H]1C(=O)NCc1cccs1 [Example 73, 2-chlorophenyl (3S)-4-(N^2-cyclohexyl-N^6,N^6-dimethyl-D-lysyl)-3-[(thiophen-2-ylmethyl)carbamoyl]piperazine-1-carboxylate]	1.1 nM
O=C(NCc1cccs1)[C@@H]1CN(C(=O)Oc2cccc3c2CNCC3)CCN1C(=O)[C@@H](CC1CCCCC1)NC1CCCCC1 [Example 37, 1,2,3,4-tetrahydroisoquinolin-8-yl (3S)-4-(N,3-dicyclohexyl-D-alanyl)-3-[(thiophen-2-ylmethyl)carbamoyl]piperazine-1-carboxylate]	5.3 nM
O=C(NCc1cccs1)[C@@H]1CN(C(=O)Oc2ccc(F)c3cccnc23)CCN1C(=O)[C@@H](CC1CCCCC1)NC1CCCCC1 [Example 32, 5-fluoroquinolin-8-yl (3S)-4-(N,3-dicyclohexyl-D-alanyl)-3-[(thiophen-2-ylmethyl)carbamoyl]piperazine-1-carboxylate]	5.2 nM
Cc1ccc(OC(=O)N2CCN(C(=O)[C@@H](CCCCNC(C)C)NC3CCCCC3)[C@H](C(=O)NCc3cccs3)C2)c(Cl)c1C [Example 102, 2-chloro-3,4-dimethylphenyl (3S)-4-[N^2-cyclohexyl-N^6-(1-methylethyl)-D-lysyl]-3-[(thiophen-2-ylmethyl)carbamoyl]piperazine-1-carboxylate]	0.7 nM
Cc1ccc(OC(=O)N2CCN(C(=O)[C@H](N)CCCCN3CCCCC3)[C@H](C(=O)NCc3cccs3)C2)c(Cl)c1C [Example 111, 2-chloro-3,4-dimethylphenyl (3S)-4-(6-piperidin-1-yl-D-norleucyl)-3-[(thiophen-2-ylmethyl)carbamoyl]piperazine-1-carboxylate]	5 nM

The remaining lines, values ahead:

IC50	SMILES
44.4 nM	CC(C)N[C@H](CCCCN1CCCCC1)C(=O)N1CCN(C2=N[C@@H](C)[C@H](c3ccccc3)O2)C[C@H]1C(=O)NCc1cc(F)c(CN)c(F)c1 [Example 181, (2S)-N-[4-(aminomethyl)-3,5-difluorobenzyl]-1-[N-(1-methylethyl)-6-piperidin-1-yl-D-norleucyl]-4-[(4S,5S)-4-methyl-5-phenyl-4,5-dihydro-1,3-oxazol-2-yl]piperazine-2-carboxamide]
11.9 nM	CN(C)CCCC[C@H](C(=O)N1CCN(C(=O)Cc2cccc3c2CCNC3)C[C@H]1C(=O)NCc1cccs1)N(C)C1CCC2(CC1)CCN(Cc1ccccc1)C2 (stereo partly drawn) [Example 96, (2S)-1-[N^2-(2-benzyl-2-azaspiro[4.5]dec-8-yl)-N^2,N^6,N^6-trimethyl-D-lysyl]-4-(1,2,3,4-tetrahydroisoquinolin-5-ylacetyl)-N-(thiophen-2-ylmethyl)piperazine-2-carboxamide]
53.6 nM	CN(C)CCCC[C@H](C(=O)N1CCN(C2=NC(C)(C)C(c3ccccc3)O2)C[C@H]1C(=O)NCc1ccc(C(N)=O)cc1)N(C)C (stereo partly drawn) [Example 155, (2S)-N-(4-carbamoylbenzyl)-4-(4,4-dimethyl-5-phenyl-4,5-dihydro-1,3-oxazol-2-yl)-1-(N^2,N^2,N^6,N^6-tetramethyl-D-lysyl)piperazine-2-carboxamide]
3.9 nM	CC(C)N[C@H](CCCCN1CCCCC1)C(=O)N1CCN(C2=N[C@@H](C)[C@H](c3ccccc3)O2)C[C@H]1C(=O)NCc1cc2cnccc2s1 [Example 173, (2S)-1-[N-(1-methylethyl)-6-piperidin-1-yl-D-norleucyl]-4-[(4S,5S)-4-methyl-5-phenyl-4,5-dihydro-1,3-oxazol-2-yl]-N-(thieno[3,2-c]pyridin-2-ylmethyl)piperazine-2-carboxamide]
7 nM	C[C@@H]1N=C(N2CCN(C(=O)[C@@H](CCCCNS(C)(=O)=O)NC3CCCCC3)[C@H](C(=O)NCc3cccs3)C2)O[C@H]1c1ccccc1 [Example 123, (2S)-1-[N^2-cyclohexyl-N^6-(methylsulfonyl)-D-lysyl]-4-[(4S,5S)-4-methyl-5-phenyl-4,5-dihydro-1,3-oxazol-2-yl]-N-(thiophen-2-ylmethyl)piperazine-2-carboxamide]
27.9 nM	C[C@@H]1N=C(N2CCN(C(=O)[C@@H](CCCCN3CCCCC3)NC3CCC(CN)CC3)[C@H](C(=O)NCc3ccc(C(N)=O)s3)C2)O[C@H]1c1ccccc1 (stereo partly drawn) [Example 177, (2S)-1-{N-[4-(aminomethyl)cyclohexyl]-6-piperidin-1-yl-D-norleucyl}-N-[(5-carbamoylthiophen-2-yl)methyl]-4-[(4S,5S)-4-methyl-5-phenyl-4,5-dihydro-1,3-oxazol-2-yl]piperazine-2-carboxamide]
6.7 nM	CN(C)CCCC[C@H](C(=O)N1CCN(C2=NC(C)(C)C(c3ccccc3)O2)C[C@H]1C(=O)NCc1ccc2[nH]cc(Cl)c2c1)N(C)C (stereo partly drawn) [Example 145, (2S)-N-[(3-chloro-1H-indol-5-yl)methyl]-4-(4,4-dimethyl-5-phenyl-4,5-dihydro-1,3-oxazol-2-yl)-1-(N^2,N^2,N^6,N^6-tetramethyl-D-lysyl)piperazine-2-carboxamide]
0.8 nM	C[C@@H]1N=C(N2CCN(C(=O)[C@@H](CCCCN(C)C)NC3CCC4(CC3)CCN(Cc3ccccc3)C4)[C@H](C(=O)NCc3cccs3)C2)O[C@H]1c1ccccc1 (stereo partly drawn) [Example 135, (2S)-1-[N^2-(2-benzyl-2-azaspiro[4.5]dec-8-yl)-N^6,N^6-dimethyl-D-lysyl]-4-[(4S,5S)-4-methyl-5-phenyl-4,5-dihydro-1,3-oxazol-2-yl]-N-(thiophen-2-ylmethyl)piperazine-2-carboxamide]
2.5 nM	CC[C@@H](C)N[C@H](CCCCN1CCCCC1)C(=O)N1CCN(C2=N[C@@H](C)[C@H](c3ccccc3)O2)C[C@H]1C(=O)NCc1cccc(Cl)c1 [Example 170, (2S)-N-(3-chlorobenzyl)-4-[(4S,5S)-4-methyl-5-phenyl-4,5-dihydro-1,3-oxazol-2-yl]-1-{N-[(1R)-1-methylpropyl]-6-piperidin-1-yl-D-norleucyl}piperazine-2-carboxamide]
17.1 nM	C[C@H]1N=C(N2CCN(C(=O)[C@@H](CC3CCCCC3)NC3CCCCC3)[C@H](C(=O)NCc3cccs3)C2)O[C@H]1c1ccccc1 [Example 114, (2S)-1-(N,3-dicyclohexyl-D-alanyl)-4-[(4R,5S)-4-methyl-5-phenyl-4,5-dihydro-1,3-oxazol-2-yl]-N-(thiophen-2-ylmethyl)piperazine-2-carboxamide]
